Source: patent US4178449A, “Pyrazolo[1,5-a]pyrimidines and imidazo-[1,5-a]pyrimidines” (American Cyanamid Company, priority 1978, dated 1979)

What was measured:
[1] = system: conflict situation (shocks taken) in Wistar strain rats; experiment: non-conditioned passive avoidance (conflict) procedure; type: in vivo, rat; design: key: Active: The test compounds are considered active if the shocks received by the test group are significantly different from the control group by the Mann-Whitney U test; conditions: oral or intraperitoneal, single or graded doses, tested at 30 or 60 minutes, 5 minute interval
Method: Another test which has been used to assess anti-anxiety effect is a non-conditioned passive avoidance procedure described by J. R. Vogel, B. Beer and D. E. Clody, "A Simple and Reliable Conflict Procedure for Testing Anti-Anxiety Agents", Psychopharmacologia, 21, 1-7 (1971). A conflict situation is induced in rats by a modification of this method. Groups of 6 naive, Wistar strain rats, weighing 200-240 g. each were deprived of water for 48 hours and food for 24 hours. The test compounds were administered in single or graded, oral or intraperitoneal doses suspended in a 2% starch vehicle containing 0.5% v/v polyethylene glycol and one drop of Polysorbate 80. Control animals received the vehicle alone. At 30 or 60 minutes each rat was placed in individual black plexiglass chambers. A 10% dextrose solution was available ad libitum from a tap located in the rear of the chamber. A 0.3 milliampere constant current 60 Hz pulsed DC shocking current was established between the stainless steel grid floor and the tap. After 20 seconds of non-shocked drinking, an alternating 5 second "shock-on" and 5 second "shock-off" cycle began and continued for a total of 5 minutes. The number of shocks taken by each rat during the 5 minute interval was recorded and compared to a control group. […]

[2] = system: 3H-diazepam binding to the brain receptors (rat frontal cortex P2-synaptosomal fraction); experiment: inhibition of 3H-diazepam binding to brain receptors; design: key: Active: A compound which exhibits the ability to inhibit binding by ≥20% is considered to be active; conditions: 3H-diazepam (1.5 mM.), 20 minutes in ice
Description: Another test used to measure anxiolytic activity comprises measurement of the ability of test compounds to inhibit the binding of ^3 H-diazepam to the brain receptors of warm-blooded animals. The test is described by R. F. Squires in Nature, 266, No. 21 page 732 (April 1977) and H. Mohler and T. Okada, Science, 198, 849 (1977). A modification of this test was employed wherein the animals used were male albino rats of the Wistar strain, weighing 150-200 g. each from Royalhart Farms. Diazepam (methyl-^3 H) was obtained from New England Nuclear. The test compounds were solubilized in either dimethylformamide, acetic acid, ethanol or hydrochloric acid. Frontal cortex of rats was homogenized gently in 20 volumes of ice-cold 0.32 M. sucrose, centrifuged twice at 1000 g. for 10 minutes and then recentrifuged at 30,000 g. for 20 minutes to produce a crude P2 -synaptosomal fraction. The P2 -fraction was resuspended, twice the original volume, in hypotonic 50 mM. Tris.HCl (pH 7.4). The binding assay consisted of 300 μl. of the P2 -fraction suspension (0.350 mg.), 100 μl. of test drug and 100 μl. of ^3 H-diazepam ([…].),. which was added to 1.5 ml. of 50 mM. Tris.HCl (pH 7.4). Non-specific binding controls and total binding controls received 100 μl. of diazepam (3 μm.) and 100 μl. of deionized water, respectively, in place of the test compound. Incubation for 20 minutes proceeded in ice and was terminated by filtration, under vacuum, through Whatman GF/C glass fiber filters. The filters were washed twice with 5 ml. of ice-cold 50 mM. Tris.HCl (pH 7.4) and placed in scintillation vials. After drying at 50°-60° C. for 30 minutes, 10 ml. of Beckman Ready-Solve HP was added and the radioactivity determined in a Beckman Scintillation Counter. The percentage of inhibition of diazepam binding is calculated for each compound. […] Representative compounds of the present invention which were active when tested by the diazepam binding assay are set forth in Table III below.

[3] = system: pentylenetetrazole clonic seizures in rats; experiment: protection from convulsions resulting from the administration of pentylenetetrazole; type: in vivo, rat; design: key: Active: The test compounds are considered active if they protect 50% or more of the rats from clonic seizures; conditions: oral or intraperitoneal, single or graded doses, pentylenetetrazole 21 to 23 mg./kg. i.v. at 30 or 60 minutes
Method: The anti-anxiety properties of the novel compounds of the present invention have been established in a test which indicates anxiolytic activity by the measure of protection from convulsions resulting from the administration of pentylenetetrazole. Single or graded dose levels of the test compounds were administered orally or intraperitoneally in a 2% starch vehicle, to groups of at least 4 rats. At 30 or 60 minutes, the rats were treated intravenously with pentylenetetrazole at a dose of 21 to 23 mg./kg. of body weight. This dose is estimated to cause clonic seizures in 99% of unprotected rats. The test compounds are considered active if they protect 50% or more of the rats from clonic seizures. It has been reported [R. T. Hill and D. H. Tedeschi, "Animal Testing and Screening Procedures in Evaluating Psychotropic Drugs" in "An Introduction to Psychopharmacology", Eds. R. R. Rech and K. E. Moore, Raven Press, New York, pp. 237-288 (1971)] that there is a high degree of correlation between antagonism of pentylenetetrazole seizures in rats and anti-anxietyeffects in higher warm-blooded animals.

CCOC(=O)c1cnn2c(-c3cccc(C(F)(F)F)c3)ccnc12 [Example 16, 7-(α,α,α-Trifluoro-m-tolyl)pyrazolo[1,5-a]pyrimidine-3-carboxylic acid ethyl ester]
Active: Result (number of shocks taken vs control, conflict procedure) [1] | Result (inhibition of 3H-diazepam binding) [2] | Result (protection from pentylenetetrazole clonic seizures) [3]

N#Cc1ncn2c(-c3cccc(C(F)(F)F)c3)ccnc12 [Example 29, 4-(α,α,α-Trifluoro-m-tolyl)imidazo[1,5-a]pyrimidine-8-carbonitrile]
Active: Result (number of shocks taken vs control, conflict procedure) [1] | Result (inhibition of 3H-diazepam binding) [2] | Result (protection from pentylenetetrazole clonic seizures) [3]
